# Biological target: S1P1 (Homo sapiens, UniProt P21453)
# Test: S1P1 receptor agonism (EC50 statement)
# Format: biochemical
# Conditions: not given
# Sequence of S1P1 (P21453 whole entry, species assumed): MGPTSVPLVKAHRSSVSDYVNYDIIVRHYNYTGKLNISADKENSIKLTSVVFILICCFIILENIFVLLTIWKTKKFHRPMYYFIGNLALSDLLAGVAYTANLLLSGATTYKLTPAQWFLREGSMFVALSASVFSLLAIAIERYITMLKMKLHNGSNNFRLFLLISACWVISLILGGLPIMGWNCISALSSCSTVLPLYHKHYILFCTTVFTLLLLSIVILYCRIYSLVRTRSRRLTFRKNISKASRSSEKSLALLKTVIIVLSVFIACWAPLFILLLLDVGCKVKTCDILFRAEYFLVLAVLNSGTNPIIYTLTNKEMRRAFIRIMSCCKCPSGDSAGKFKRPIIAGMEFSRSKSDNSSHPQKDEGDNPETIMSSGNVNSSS
row,SMILES,EC50
1,"CCCc1ccc(COc2ccc3c(c2)CCC(CN2CC(C(=O)O)C2)=C3C)c(OC)c1 [Compound 1, ceralifimod]",11.8 nM

# Biological target: S1P5 (Homo sapiens, UniProt Q9H228)
# Test: S1P5 receptor agonism (EC50 statement)
# Format: biochemical
# Conditions: not given
# Sequence of S1P5 (Q9H228 whole entry, species assumed): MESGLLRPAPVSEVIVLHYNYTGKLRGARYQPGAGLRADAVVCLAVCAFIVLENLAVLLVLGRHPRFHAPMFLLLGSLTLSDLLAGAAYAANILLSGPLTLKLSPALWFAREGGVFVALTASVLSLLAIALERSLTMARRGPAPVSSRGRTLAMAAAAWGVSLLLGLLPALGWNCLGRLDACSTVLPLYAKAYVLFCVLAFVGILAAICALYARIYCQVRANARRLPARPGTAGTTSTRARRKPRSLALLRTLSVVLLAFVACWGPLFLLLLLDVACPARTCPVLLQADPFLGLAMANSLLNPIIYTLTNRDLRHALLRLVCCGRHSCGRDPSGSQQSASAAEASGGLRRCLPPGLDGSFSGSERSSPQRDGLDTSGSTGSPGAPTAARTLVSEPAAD
row,SMILES,EC50
1,"CCCc1ccc(COc2ccc3c(c2)CCC(CN2CC(C(=O)O)C2)=C3C)c(OC)c1 [Compound 1, ceralifimod]",1 nM

# Biological target: T1, recombinant human FAAH (rhFAAH) (Homo sapiens, UniProt O00519)
# T1 sequence (O00519 1-579): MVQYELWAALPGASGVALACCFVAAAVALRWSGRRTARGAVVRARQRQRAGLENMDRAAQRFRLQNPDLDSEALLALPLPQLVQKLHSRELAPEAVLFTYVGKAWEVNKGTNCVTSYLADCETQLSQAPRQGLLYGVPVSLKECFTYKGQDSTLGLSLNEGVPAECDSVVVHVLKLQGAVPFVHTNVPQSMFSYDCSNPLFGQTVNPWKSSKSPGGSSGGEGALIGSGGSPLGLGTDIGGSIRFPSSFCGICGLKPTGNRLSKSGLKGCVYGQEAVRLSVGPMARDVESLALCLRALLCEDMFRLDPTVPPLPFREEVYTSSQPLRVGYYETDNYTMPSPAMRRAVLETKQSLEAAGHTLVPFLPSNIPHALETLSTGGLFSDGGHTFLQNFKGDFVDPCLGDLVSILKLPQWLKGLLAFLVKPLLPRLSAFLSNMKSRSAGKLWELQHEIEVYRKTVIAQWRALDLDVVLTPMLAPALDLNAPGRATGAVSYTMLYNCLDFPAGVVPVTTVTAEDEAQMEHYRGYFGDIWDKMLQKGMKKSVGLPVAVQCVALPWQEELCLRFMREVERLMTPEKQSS
# Test: FAAH substrate evaluation: formation of acid metabolite by purified recombinant human FAAH (rhFAAH)
# Format: biochemical
# Conditions: role: substrate; 1 μM test compound, 0.5 ng/μL rhFAAH, 1.25% ethanol or 1 μM PF-3845 (FAAH inhibitor), 0.1% BSA, Tris-EDTA pH 8.0, room temperature, 0-60 minutes
# Experimental: Purified recombinant human FAAH (rhFAAH) was purchased from Cayman Chemical (Ann Arbor, MI, USA). The total volume for each incubation was 400 μL containing a final 0.5 ng/μL rhFAAH, 1 μM test compound, 1.25% ethanol or 1 μM PF-3845 (FAAH inhibitor), and 0.1% bovine serum albumin in Tris-EDTA buffer at pH 8.0). The incubation was conducted at room temperature. At 0, 5, 15, 30 and 60 minutes, an aliquot of 30 μL reaction mixtures was removed and mixed with 300 μL acetonitrile containing 5 ng/mL terfenadine and 10 ng/mL tolbutamide as internal standards to quench the reaction. The resulting mixture was centrifuged at 4000 rpm, 4 °C for 15 minutes, and 100 μL supernatant was ready for LC-MS/MS analysis to measure the formation of acid metabolite.
# Acquity Ultra Performance LC system from Waters was used for sample analysis. The chromatography was performed on a reverse phase Kinetex 2.6 μm C18 column, 2.1×30 mm, 100 Å. The mobile phase A comprised of 0.1% formic acid in water and mobile phase B comprised of 0.1% formic acid in acetonitrile with a 1.5 min run time at the flow rate of 0.9 mL/min for the acid metabolite of test compounds. The mass spectrometer (API-5500 and API Q Trap 4000 Applied Biosystems/MDS SCIEX Instruments, Framingham, MA, USA) was operated under ESI positive or negative ion MRM mode.
# The formation of acid metabolite was monitored and quantified using one calibration point of 1 μM. The observed rate constant (ke) for the acid metabolite formation was calculated by plotting the metabolite concentration versus time of incubation with the slope being ke and is shown in Table 1.
row,SMILES,ke (observed rate constant for the acid metabolite formation)
1,"CCCc1ccc(COc2ccc3c(c2)CCC(CN2CC(C(=O)N[C@H](C)CC)C2)=C3C)c(OC)c1 [Compound 9, (R)—N-(sec-butyl)-1-((6-((2-methoxy-4-propylbenzyl)oxy)-1-methyl-3,4-dihydronaphthalen-2-yl)methyl)azetidine-3-carboxamide]",A (ke is more than or equal to 1.0)
2,"CCCc1ccc(COc2ccc3c(c2)CCC(CN2CC(C(=O)N(C)C)C2)=C3C)c(OC)c1 [Compound 23, 1-((6-((2-methoxy-4-propylbenzyl)oxy)-1-methyl-3,4-dihydronaphthalen-2-yl)methyl)-N,N-dimethylazetidine-3-carboxamide]",B (ke is less than 1.0 and more than 0)
3,"CCCc1ccc(COc2ccc3c(c2)CCC(CN2CC(C(=O)Nc4cccnn4)C2)=C3C)c(OC)c1 [Compound 4, 1-((6-((2-methoxy-4-propylbenzyl)oxy)-1-methyl-3,4-dihydronaphthalen-2-yl)methyl)-N-(pyridazin-3-yl)azetidine-3-carboxamide]",A (ke is more than or equal to 1.0)
4,"CCCc1ccc(COc2ccc3c(c2)CCC(CN2CC(C(=O)Nc4cccnc4)C2)=C3C)c(OC)c1 [Compound 3, 1-((6-((2-methoxy-4-propylbenzyl)oxy)-1-methyl-3,4-dihydronaphthalen-2-yl)methyl)-N-(pyridin-3-yl)azetidine-3-carboxamide]",B (ke is less than 1.0 and more than 0)
5,"CCCc1ccc(COc2ccc3c(c2)CCC(CN2CC(C(=O)NCC)C2)=C3C)c(OC)c1 [Compound 19, N-ethyl-1-((6-((2-methoxy-4-propylbenzyl)oxy)-1-methyl-3,4-dihydronaphthalen-2-yl)methyl)azetidine-3-carboxamide]",A (ke is more than or equal to 1.0)
6,"CCCc1ccc(COc2ccc3c(c2)CCC(CN2CC(C(=O)NC4CC4)C2)=C3C)c(OC)c1 [Compound 8, N-cyclopropyl-1-((6-((2-methoxy-4-propylbenzyl)oxy)-1-methyl-3,4-dihydronaphthalen-2-yl)methyl)azetidine-3-carboxamide]",A (ke is more than or equal to 1.0)
7,"CCCCNC(=O)C1CN(CC2=C(C)c3ccc(OCc4ccc(CCC)cc4OC)cc3CC2)C1 [Compound 15, N-butyl-1-((6-((2-methoxy-4-propylbenzyl)oxy)-1-methyl-3,4-dihydronaphthalen-2-yl)methyl)azetidine-3-carboxamide]",A (ke is more than or equal to 1.0)
8,"CCCc1ccc(COc2ccc3c(c2)CCC(CN2CC(C(=O)N(C)CC)C2)=C3C)c(OC)c1 [Compound 17, N-ethyl-1-((6-((2-methoxy-4-propylbenzyl)oxy)-1-methyl-3,4-dihydronaphthalen-2-yl)methyl)-N-methylazetidine-3-carboxamide]",C (ke is 0)
9,"CCCc1ccc(COc2ccc3c(c2)CCC(CN2CC(C(=O)N4CCC4)C2)=C3C)c(OC)c1 [Compound 12, azetidin-1-yl(1-((6-((2-methoxy-4-propylbenzyl)oxy)-1-methyl-3,4-dihydronaphthalen-2-yl)methyl)azetidin-3-yl)methanone]",A (ke is more than or equal to 1.0)
10,"CCCc1ccc(COc2ccc3c(c2)CCC(CN2CC(C(=O)NOC)C2)=C3C)c(OC)c1 [Compound 20, N-methoxy-1-((6-((2-methoxy-4-propylbenzyl)oxy)-1-methyl-3,4-dihydronaphthalen-2-yl)methyl)azetidine-3-carboxamide]",A (ke is more than or equal to 1.0)
11,"CCCc1ccc(COc2ccc3c(c2)CCC(CN2CC(C(=O)N(C)OC)C2)=C3C)c(OC)c1 [Compound 21, N-methoxy-1-((6-((2-methoxy-4-propylbenzyl)oxy)-1-methyl-3,4-dihydronaphthalen-2-yl)methyl)-N-methylazetidine-3-carboxamide]",A (ke is more than or equal to 1.0)
12,"CCCc1ccc(COc2ccc3c(c2)CCC(CN2CC(C(=O)NC)C2)=C3C)c(OC)c1 [Compound 2, 1-((6-((2-methoxy-4-propylbenzyl)oxy)-1-methyl-3,4-dihydronaphthalen-2-yl)methyl)-N-methylazetidine-3-carboxamide]",B (ke is less than 1.0 and more than 0)
13,"CCCCN(C)C(=O)C1CN(CC2=C(C)c3ccc(OCc4ccc(CCC)cc4OC)cc3CC2)C1 [Compound 14, N-butyl-1-((6-((2-methoxy-4-propylbenzyl)oxy)-1-methyl-3,4-dihydronaphthalen-2-yl)methyl)-N-methylazetidine-3-carboxamide]",C (ke is 0)
14,"CCCc1ccc(COc2ccc3c(c2)CCC(CN2CC(C(=O)NCCCF)C2)=C3C)c(OC)c1 [Compound 5, N-(3-fluoropropyl)-1-((6-((2-methoxy-4-propylbenzyl)oxy)-1-methyl-3,4-dihydronaphthalen-2-yl)methyl)azetidine-3-carboxamide]",A (ke is more than or equal to 1.0)
15,"CCCc1ccc(COc2ccc3c(c2)CCC(CN2CC(C(=O)N[C@@H](C)CC)C2)=C3C)c(OC)c1 [Compound 10, (S)—N-(sec-butyl)-1-((6-((2-methoxy-4-propylbenzyl)oxy)-1-methyl-3,4-dihydronaphthalen-2-yl)methyl)azetidine-3-carboxamide]",B (ke is less than 1.0 and more than 0)
16,"CCCc1ccc(COc2ccc3c(c2)CCC(CN2CC(C(=O)NCC(F)(F)F)C2)=C3C)c(OC)c1 [Compound 6, 1-((6-((2-methoxy-4-propylbenzyl)oxy)-1-methyl-3,4-dihydronaphthalen-2-yl)methyl)-N-(2,2,2-trifluoroethyl)azetidine-3-carboxamide]",A (ke is more than or equal to 1.0)
17,"CCCc1ccc(COc2ccc3c(c2)CCC(CN2CC(C(=O)Nc4ccncc4)C2)=C3C)c(OC)c1 [Compound 13, 1-((6-((2-methoxy-4-propylbenzyl)oxy)-1-methyl-3,4-dihydronaphthalen-2-yl)methyl)-N-(pyridin-4-yl)azetidine-3-carboxamide]",A (ke is more than or equal to 1.0)
18,"CCCc1ccc(COc2ccc3c(c2)CCC(CN2CC(C(=O)N(CC)CC)C2)=C3C)c(OC)c1 [Compound 16, N,N-diethyl-1-((6-((2-methoxy-4-propylbenzyl)oxy)-1-methyl-3,4-dihydronaphthalen-2-yl)methyl)azetidine-3-carboxamide]",C (ke is 0)
19,"CCCNC(=O)C1CN(CC2=C(C)c3ccc(OCc4ccc(CCC)cc4OC)cc3CC2)C1 [Compound 18, 1-((6-((2-methoxy-4-propylbenzyl)oxy)-1-methyl-3,4-dihydronaphthalen-2-yl)methyl)-N-propylazetidine-3-carboxamide]",A (ke is more than or equal to 1.0)
20,"CCCc1ccc(COc2ccc3c(c2)CCC(CN2CC(C(=O)NCCC(F)(F)F)C2)=C3C)c(OC)c1 [Compound 11, 1-((6-((2-methoxy-4-propylbenzyl)oxy)-1-methyl-3,4-dihydronaphthalen-2-yl)methyl)-N-(3,3,3-trifluoropropyl)azetidine-3-carboxamide]",A (ke is more than or equal to 1.0)
21,"CCCc1ccc(COc2ccc3c(c2)CCC(CN2CC(C(=O)NCC4CC4)C2)=C3C)c(OC)c1 [Compound 7, N-(cyclopropylmethyl)-1-((6-((2-methoxy-4-propylbenzyl)oxy)-1-methyl-3,4-dihydronaphthalen-2-yl)methyl)azetidine-3-carboxamide]",A (ke is more than or equal to 1.0)

# Source: US20260374751A1, “AMIDE PRODRUGS AND USES THEREOF” (Autobahn Therapeutics, Inc., priority 2022, published 2026)
